pIC50: −log10 of the molar value.
What was measured:
[1] = target: T1, Adenosine deaminase (EC 3.5.4.4) extracted from bovine spleen (Bos taurus, UniProt P56658); assay: biochemical; assay type: biochemical; conditions: for pIC50: 2 mg/ml adenosine deaminase enzyme, 37°C, 30 min incubation, PBS pH 7.4, compounds 5–300 μM
T1 construct: Adenosine deaminase (EC 3.5.4.4) extracted from bovine spleen; purchased sigma; host or cells: bovine spleen (tissue extract)
T1 sequence (P56658 1-363): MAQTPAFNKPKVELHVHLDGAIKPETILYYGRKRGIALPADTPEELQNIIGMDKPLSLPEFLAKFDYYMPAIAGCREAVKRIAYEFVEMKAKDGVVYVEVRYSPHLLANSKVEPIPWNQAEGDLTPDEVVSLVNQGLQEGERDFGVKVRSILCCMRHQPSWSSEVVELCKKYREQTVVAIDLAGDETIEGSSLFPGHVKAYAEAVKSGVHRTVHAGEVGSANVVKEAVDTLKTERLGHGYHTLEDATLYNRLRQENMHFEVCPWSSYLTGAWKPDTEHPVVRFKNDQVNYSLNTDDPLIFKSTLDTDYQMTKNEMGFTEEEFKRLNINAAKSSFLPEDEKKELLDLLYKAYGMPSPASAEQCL
Protocol: Adenosine deaminase (EC 3.5.4.4) extracted from bovine spleen was purchased from sigma, and all other used materials were of analytical grade and acquired from Merck. PBS that is used in assay was adjusted at 7.4, at which, enzyme has optimal activity in [38, 39]. All solutions were prepared in MilliQ (Millipore, USA) water.
Released ammonia resulted by enzyme activity was determined by specific Berthelot colorimetric method which was used for micro determination of ADA activity in serum. […] In this process sodium nitroprusside is used as the catalyst. The reaction was initiated by addition of adenosine as a substrate at 37°C to preincubated enzyme with different concentrations of tested compounds at different concentrations (5–300 μM). Finally, the enzymatic reaction was stopped at the end of 30 minutes of incubation by adding phenol nitroprusside solution. The mixture kept again for 30 minutes at 37°C before absorbance determination.
Obtained absorbance was normalized through blank sample, and IC50 values were calculated by Prism software (Ver. 5, GraphPad Software Inc., San Diego CA,).

adenosine deaminase [2] = target: T2, adenosine deaminase (Bos taurus, UniProt P56658); assay: Fluorescence spectroscopy of ADA (Trp emission); assay type: binding, bovine; conditions: excitation 290 nm, emission 300-400 nm, pH 7.4, enzyme 6 μM, compounds 1.7 to 73.4 μM
T2 construct: Adenosine deaminase (EC 3.5.4.4) extracted from bovine spleen; purchased sigma; host or cells: bovine spleen (tissue extract)
T2 sequence (P56658 1-363): T1 sequence (P56658 1-363)
Protocol: Fluorescence spectroscopy was performed on a Hitachi fluorescence spectrophotometer model MPF-4 with 1 cm path length fluorescence cuvette and final volume of 400 μL. The excitation wavelength was adjusted in 290 nm, and the emission was scanned every 1 nm in the range of 300 to 400 nm.

adenosine deaminase [3] = target: T2, adenosine deaminase; assay: Circular dichroism spectroscopy of ADA; set-up: species or system bovine; conditions: far-UV 200–260 nm, pH 7.4; cocaine concentration around 180 μM
Protocol: CD spectra were measured in the far-UV (200–260 nm) region with JASCO J-715 spectropolarimeter (Japan). JASCO J-715 software not only gave us the possibility of data smoothing, but also used to predict the secondary structure changes of the protein according to the statistical method. Each scan was recorded in 1 nm increments at 37°C, repeated three times, and averaged. The protein was in 0.1 M PBS buffer, pH = 7.4, and its concentration was adjusted to 2 mg/ml in 1 cm path length cuvette. The results were expressed in molar ellipticity [θ] (deg cm^2.dmol^−1).

For `COC(=O)[C@H]1[C@@H](OC(=O)c2ccccc2)C[C@@H]2CC[C@H]1N2C` [Cocaine], the pIC50 [1] was 3.74, the “change in fluorescence spectra of ADA” value (adenosine deaminase [2]) was “bathochromic shift” and the “change in CD spectra of ADA” value (adenosine deaminase [3]) was “drastic changes”.
`CCOc1ccc2c3c1O[C@H]1[C@@H](O)C=C[C@H]4[C@@H](C2)N(C)CC[C@@]341` [Ethylmorphine] was tested, and the pIC50 [1] was 4.46 and the “change in fluorescence spectra of ADA” value (adenosine deaminase [2]) was “do not show noticeable change and shift”.
For `COC1=CC=C2[C@H]3Cc4ccc(OC)c5c4[C@@]2(CCN3C)[C@H]1O5` [Thebaine], the “concentration up to which ADA was activated” value [1] was 50 µM, the pIC50 [1] was 3.79 and the “change in fluorescence spectra of ADA” value (adenosine deaminase [2]) was “do not show noticeable change and shift”.

From article PMC4028107, “Adenosine deaminase activity modulation by some street drug: molecular docking simulation and experimental investigation” (DARU Journal of Pharmaceutical Sciences, 2014)
